The target of data set [1] is T1, Gonadotropin-releasing hormone receptor (Rattus norvegicus, UniProt P30969).
T1 sequence (P30969 whole entry): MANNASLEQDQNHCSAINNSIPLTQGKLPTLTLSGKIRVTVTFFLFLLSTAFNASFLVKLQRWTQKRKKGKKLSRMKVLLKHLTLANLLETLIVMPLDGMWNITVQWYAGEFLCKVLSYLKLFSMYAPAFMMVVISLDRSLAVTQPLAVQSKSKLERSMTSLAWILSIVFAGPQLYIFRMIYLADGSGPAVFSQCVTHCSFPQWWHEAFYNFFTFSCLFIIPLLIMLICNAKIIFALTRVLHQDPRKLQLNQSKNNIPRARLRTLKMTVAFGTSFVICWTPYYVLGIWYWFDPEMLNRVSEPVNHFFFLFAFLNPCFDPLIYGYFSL
The data set can be described thus: Displacement of [125I]Triptorelin from rat full-length gonadotropin-releasing hormone receptor expressed in HEK293 cells. The class given is cell-based.

Data set [2] can be described thus: Octanol-PBS partition coefficient, log P of the compound at 10 kBq at pH 7.4 by gamma counting analysis. It counts as physicochemical.
The target of data set [3] is T2, Gonadotropin-releasing hormone receptor (Homo sapiens, UniProt P30968).
T2 sequence (P30968 whole entry): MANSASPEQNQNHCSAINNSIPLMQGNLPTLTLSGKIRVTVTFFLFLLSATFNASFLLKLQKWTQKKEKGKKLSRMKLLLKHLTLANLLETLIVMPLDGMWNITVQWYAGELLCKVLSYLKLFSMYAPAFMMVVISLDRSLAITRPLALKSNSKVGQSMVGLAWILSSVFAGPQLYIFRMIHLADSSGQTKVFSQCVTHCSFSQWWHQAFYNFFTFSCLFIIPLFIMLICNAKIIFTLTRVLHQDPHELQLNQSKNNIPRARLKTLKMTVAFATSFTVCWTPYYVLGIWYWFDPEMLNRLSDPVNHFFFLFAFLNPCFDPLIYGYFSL
Kind of data set: Binding affinity to human gonadotropin-releasing hormone receptor by radioligand displacement assay. A general note: Displacement assays read how much labelled ligand stays bound in the presence of the test substance.

For data set [4], the target named is T3, Gonadotropin-releasing hormone receptor (Mus musculus, UniProt Q01776).
T3 sequence (Q01776 whole entry): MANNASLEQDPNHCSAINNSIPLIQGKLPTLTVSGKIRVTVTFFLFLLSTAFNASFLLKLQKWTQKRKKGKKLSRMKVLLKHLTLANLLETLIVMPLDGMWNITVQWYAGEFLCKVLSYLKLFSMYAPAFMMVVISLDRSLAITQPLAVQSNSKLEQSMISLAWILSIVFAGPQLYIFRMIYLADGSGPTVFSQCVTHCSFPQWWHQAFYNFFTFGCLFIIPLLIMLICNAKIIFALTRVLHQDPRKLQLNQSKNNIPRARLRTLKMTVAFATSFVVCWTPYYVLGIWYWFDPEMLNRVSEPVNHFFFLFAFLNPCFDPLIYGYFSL
The data set can be described thus: Binding affinity to mouse gonadotropin-releasing hormone receptor by radioligand displacement assay.

Structures are written as SMILES.

Consider `COc1nc(F)nc(OC)c1NC(=O)c1ccc(Oc2cc3c(cc2C)CCC3(C)C)o1`, for which the Ki – broadly, the dissociation constant of the complex between target and ligand, obtained from inhibition or displacement – in data set [1] was found to be 42 nM.

In turn, `COc1nc(OCCF)nc(OC)c1NC(=O)c1ccc(Oc2cc3c(cc2C)CCC3(C)C)o1` had an inhibitory constant (Ki) in data set [1] of 1.36 nM. Against the preceding molecule, the Ki is about 31-fold lower.

In the case of `COc1nc(OCC[18F])nc(OC)c1NC(=O)c1ccc(Oc2cc3c(cc2C)CCC3(C)C)o1`, in data set [2], the logD (in general, the decadic logarithm of the distribution of all forms, ionised or not, between an organic phase and buffer at a given pH) was 1.74.

For `COc1cc(OC)c(NC(=O)c2ccc(Cc3cc4c(cc3C)C(C)(C)CCC4(C)C)o2)c(OC)c1`, the Ki stood at 6 nM in data set [3] and 2.2 nM in data set [4].

These data come from ChEMBL document CHEMBL3232737, “Synthesis and in vitro evaluation of small-molecule [18F] labeled gonadotropin-releasing hormone (GnRH) receptor antagonists as potential PET imaging agents for GnRH receptor expression” (Bioorg Med Chem Lett, 2014).
